Assay results published in patent US6506339B1, “Method of sterilization” (Biomedical Design, Inc., priority 1997, dated 2003).
Values joined by “and” are separate entries in the source; they are usually repeats but may differ in a detail not shown here. Identical values can stand only once.

Legend:
[1] = tested on: spores of Bacillus subtilis; assay: Effect of EDC concentration, temperature and duration on spores on cross-linked tissue (Example 4); type: cell-based; settings: 20% IPA
Experimental: The following experiment was designed to test the effect of EDC concentration, of temperature and of duration of incubation on the inactivation of spores of Bacillus subtilis. The EDC concentrations tested were 5, 12.5 and 20 mM; the temperatures were 25, 32.5 and 40° C. for 4, 24 and 44 hours of incubation. […] Spores of Bacillus subtilis (about 2.5×10^5 per sample) were inoculated on tissue that had been cross-linked using the fixation method described in the '536 patent. The spores were allowed to contact the tissue for 10 minutes, after which time 50 ml of a solution of EDC at one of the concentrations indicated above was added to each cup containing the tissue plus the spores, and incubation was carried out at the respective temperatures and for the respective lengths of time. After such incubation for either 4, 24 or 44 hours, the solutions were filtered to recover the spores, and these were incubated on TSA plates for 2 weeks at 32 to 33° C. The tissue samples were washed with a solution containing a surfactant to fully extract the spores from the tissue, and the resulting solutions were filtered. After washing with 0.1% peptone water, the filters were incubated on TSA plates for 2 weeks at 32 to 33° C. in order to determine the number of survivors on or in the tissue. The colonies were enumerated for both the EDC solutions and the tissue wash solutions, and the results (numbers of colony forming units) were added.

[2] = tested on: Methylbacterium extorquens ATCC 43645 vegetative cells; assay: Sterilization in cups at about 38° C. (Example 6); type: cell-based, Methylobacterium extorquens; settings: 25 mM EDC, 20% isopropanol, inoculum Log 10 6.94
Experimental: In view of the foregoing verification, it was decided to test the effectiveness of the sterilization process against other bacteria using sterile cups. Added to each of the cups is 20 ml of 10 mM HEPES, 0.85%, Nacl, 20% isopropanol, pH 6.5, containing 25 mM EDC without any coupling enhancer, before the cups are placed in a incubator at about 38° C. When the solution temperature reached about 38° C., approximately 10^5-10^6 organisms were inoculated into the solution. The tests were carried out in triplicate. The following four isolated were tested in the form of sporous suspensions: Clostridium sporogenes ATCC 3584, Bacillus pumilus ATCC 27142, Chaetonium globosom ATCC 6205, and Microacus cinereus ATCC 16594. The following three isolates were tested as vegetative cells: Mycobacterium chelonae ATCC 35752, Methylbacterium extorquens ATCC 43645 and Trichosporon aquatile ATCC 22310. The inoculated systems were allowed to incubate for 1 hour, for 5 hours or for 24 hours, and the solutions were then filtered through a 0.45 micron filter. After rinsing, the filter was placed on a TSA plate as described in Example 1. Negative and positive controls indicate that the tests were valid. The results are set forth in Table D which follows wherein the number of CFUs in the inoculum is expressed as its log to the base 10, e.g. 3.4×10^5=5.5: […]

[3] = 5 mM EDC, 25° C., 4 hrs, about 2.5×10^5 spores on tissue
[4] = 5 mM EDC, 25° C., 44 hrs, about 2.5×10^5 spores on tissue
[5] = 5 mM EDC, 32.5° C., 24 hrs, about 2.5×10^5 spores on tissue
[6] = 5 mM EDC, 40° C., 4 hrs, about 2.5×10^5 spores on tissue
[7] = 12.5 mM EDC, 25° C., 24 hrs, about 2.5×10^5 spores on tissue
[8] = 12.5 mM EDC, 32.5° C., 4 hrs, about 2.5×10^5 spores on tissue
[9] = 12.5 mM EDC, 32.5° C., 24 hrs, about 2.5×10^5 spores on tissue (conditions 8-11, replicates), hydrochloride
[10] = 12.5 mM EDC, 32.5° C., 44 hrs, about 2.5×10^5 spores on tissue
[11] = 12.5 mM EDC, 40° C., 24 hrs, about 2.5×10^5 spores on tissue
[12] = 20 mM EDC, 25° C., 4 hrs, about 2.5×10^5 spores on tissue
[13] = 20 mM EDC, 25° C., 44 hrs, about 2.5×10^5 spores on tissue
[14] = 20 mM EDC, 32.5° C., 24 hrs, about 2.5×10^5 spores on tissue

CCN=C=NCCCN(C)C.Cl [EDC, 1-ethyl-3(3-dimethylaminopropyl)carbodiimide hydrochloride]
LOG REDUCTION [1, 3]: .27
SURVIVORS [1, 3]: 135000 CFUs
LOG REDUCTION [1, 4]: 2.3
SURVIVORS [1, 4]: 1300 CFUs
LOG REDUCTION [1, 5]: 3.0
SURVIVORS [1, 5]: 208 CFUs
LOG REDUCTION [1, 6]: 2.4
SURVIVORS [1, 6]: 1100 CFUs
SURVIVORS ([1]; 5 mM EDC, 40° C., 44 hrs, about 2.5×10^5 spores on tissue): 21 CFUs
LOG REDUCTION [1, 7]: 3.0
SURVIVORS [1, 7]: 225 CFUs
LOG REDUCTION [1, 8]: 1.6
SURVIVORS [1, 8]: 5900 CFUs
LOG REDUCTION [1, 9]: 3.6 and 3.9 and 3.4 and 3.7
SURVIVORS [1, 9]: 57 CFUs and 34 CFUs and 94 CFUs and 44 CFUs
LOG REDUCTION [1, 10]: 3.9
SURVIVORS [1, 10]: 33 CFUs
LOG REDUCTION [1, 11]: 4.0
SURVIVORS [1, 11]: 27 CFUs
LOG REDUCTION [1, 12]: 0.9
SURVIVORS [1, 12]: 31400 CFUs
LOG REDUCTION [1, 13]: 4.2
SURVIVORS [1, 13]: 16 CFUs
LOG REDUCTION [1, 14]: 4.0
SURVIVORS [1, 14]: 24 CFUs
SURVIVORS ([1]; 20 mM EDC, 40° C., 4 hrs, about 2.5×10^5 spores on tissue): 5 CFUs
LOG REDUCTION ([1]; 20 mM EDC, 40° C., 44 hrs, about 2.5×10^5 spores on tissue): 5.4
Log REDUCTION ([2]; 1 Hour): 6.94
Log REDUCTION ([2]; 5 Hours): 6.94
